These results are taken from patent publication US10100030B2 (Kissei Pharmaceutical Co., Ltd., priority 2013, dated 2018).

Each structure is given as a SMILES string. Like-named read-outs stand apart in the source and are kept apart here.

Data set [1] addresses T1, human NK1 receptor (Homo sapiens (Human), UniProt P25103). Nature of the data set: Affinity for human NK1 receptor (125I-substance P receptor binding test). Particulars: membrane fraction of human NK1 receptor-expressing 293T cells; read-out: IC50 (concentration required for 50% inhibition of 125I-substance P binding). On the procedure: Affinity for Human NK1 Receptor
(3) Measurement of Binding Affinity to Human NK1 Receptor
(3-1) Preparation of Membrane Fraction from Human NK1 Receptor-expressing Cells
Human NK1 receptor-expressing cells were prepared in a 175 cm^2 culture flask (Nippon Becton Dickinson). The formation of a complex of the human NK1 receptor expression plasmid and Lipofectamine 2000 was performed by calculating the culture area ratio and increasing the scale of the method described in the above 2-4 by the ratio. The human NK1 receptor-expressing cells were collected in a buffer solution for the membrane fraction preparation (50 mM Tris (Wako Pure Chemical). 120 mM sodium chloride (Wako Pure Chemical Industries), 5 mM potassium chloride (Wako Pure Chemical Industries), 1 mM ethylenediaminetetraacetic acid (Sigma), 0.002 mg/mL chymostatin (Peptide Institute), 0.04 mg/ bacitracin (Wako Pure Chemical Industries), 0.005 mg/mL phosphoramidon (Peptide Institute) and 0.5 mM phenylmethylsulfonyl fluoride (Wako Pure Chemical Industries), pH7.4) and centrifuged at 1,880 g for 10 minutes, and the cell sediment was suspended in the buffer solution for the membrane fraction preparation. After freezing and thawing the cells once, the cells were homogenized using a Dounce-type homogenizer (cooled on ice, 1000 rpm, 20 times). The homogenized cell suspension was centrifuged at 20,000 rpm for 10 minutes, and the supernatant was removed to obtain cell sediment. The cell sediment was suspended again in the buffer solution for the membrane fraction preparation and homogenized using a Dounce-type homogenizer (cooled on ice, 1000 rpm, 30 times). The cell suspension was centrifuged at 20,000 rpm for 10 minutes, and the supernatant was removed to obtain cell sediment. The same homogenization and centrifugation were repeated again, and final cell sediment was obtained. The final cell sediment was suspended in a buffer solution for the receptor binding test (50 mM Tris (Wako Pure Chemical Industries), 3 mM manganese chloride (Wako Pure Chemical Industries), 0.002 mg/mL chymostatin (Peptide Institute), 0.04 mg/bacitracin (Wako Pure Chemical Industries) and 0.02% bovine serum albumin (Sigma), pH 7.4), and the protein concentration was measured using BCA Protein Assay Kit (Pierce).
(3-2) Receptor Binding Test
The buffer solution for the receptor binding test was dispensed to the wells of a 96-well assay plate (Greiner) at 22.5 μL/well. DMSO solutions of a test compound, which were prepared at an 80-time higher concentration using 100% dimethyl sulfoxide (DMSO), were added to the wells at 2.5 μL/well (final concentrations of 1 nM to 100 nM), and the solutions were mixed. As a radiolabeled ligand, ^125I-substance P (Substance P, [^125I]Tyr^8-, PerkinElmer) was used. ^125I-substance P was diluted with the buffer solution for the receptor binding test to a concentration resulting in […] and added to the 96-well assay plate, and the solutions were mixed. The membrane fraction prepared from the human NK1 receptor-expressing cells was diluted with the buffer solution for the receptor binding test to a concentration resulting in 8 to 10 μg/well, suspended until the suspension became in such a homogenous state that the suspension could flow through as 27G injection needle smoothly and then added to the 96-well assay plate at 150 μL/well. Then, the plate was incubated at room temperature for 60 minutes while shaking the plate. The reaction solutions were suction-filtered. through a multiscreen 96-well filter plate (Millipore) which had been pre-treated with 0.3% polyethyleneimine, and the reaction was terminated by washing with a washing solution (50 mM Tris and 0.02% bovine serum albumin, pH 7.4) four times. The bottom of the microplate was dried at 60° C., and then 100 μL/well of MicroScint 20 (PerkinElmer) was dispensed to the wells. The top of the plate was sealed with TopSeal A (PerkinElmer), and the plate was shaken for 5 to 10 minutes. […]

Data set [2] concerns the target T1, human NK1 receptor. Nature of the data set: Inhibitory effect on human NK1 receptor (substance P-induced increase in intracellular calcium concentration). Format: cell-based. Particulars: HEK-293T; substance P 1 μM, compound 0.1 μM; human NK1 receptor-expressing 293T cells; read-out: SPRR (Substance P-Response Remaining). The method, then:
Inhibitory Effect on Human NK1 Receptor
(1) Preparation of Human NK1 Receptor-expressing Cells
Human NK1 receptor-expressing cells were prepared by the same methods as those described in 2-3 and 2-4 of Test Example 1.
(2) Study on Inhibitory Effect on Increase in Intracellular Calcium Concentration
The human NK1 receptor-expressing cells were washed with 300 μL/well of a washing solution (20 mM HEPES/Hank's Balanced Salt Solution (HBSS) […]). A fluorescent calcium indicator (Fluo-4 Direct Calcium Assay Kit, Life Technologies, containing 0.42 mM probenecid and 0.1% bovine serum albumin, prepared according to the protocol of the product) was added to the wells at 150 μL/well, and the plate was incubated at 37° C. for 30 minutes in an incubator. Then, DMSO solutions of a test compound, which were prepared at an 80-time higher concentration using 100% dimethyl sulfoxide (DMSO), were added to the wells at 2.5 μL/well (final concentrations of 0.1, 1 and 10 μM), and the solutions were mixed. Then, the plate was further incubated at 37° C. for 30 minutes in an incubator. After 30 minutes, the intracellular calcium concentrations were measured immediately.
The intracellular calcium concentrations were each measured as a fluorescent signal using FDSS (registered trademark) 7000 (Hamamatsu Photonics). A substance P (Peptide Institute, Inc.) solution which was prepared at 0.4 μM or 4 μM using an assay buffer (20 mM HEPES/Hank's Balanced Salt Solution (HBSS) pH 7.3, containing 0.1% bovine serum albumin) was added automatically to each well at 50 μL/well (final concentration of 0.1 or 1 μM) 10 seconds after starting reading, and the fluorescent signal was measured up to 120 seconds.
The intracellular calcium concentration (%) of the cells to which a test compound was added was calculated by the equation below, where the fluorescent signal of the group to which the vehicle (DMSO) was added was regarded as 100%, and the fluorescent signal before the addition of substance P was regarded as 0%. Intracellular calcium concentration(%)=(Fluorescent signal of test compound addition group)/(Fluorescent signal of vehicle addition group)×100
The intracellular calcium concentration (%) calculated was regarded as the remaining agonist activity of substance P (Substance P-Response Remaining: SPRR). In the table, Ex. No. means the Example number. SPRR (%) is the value obtained when the concentration of substance P was 1 μM and the concentration of the compound was 0.1 μM.

Data set [3] has as its target NK1 receptor (Meriones unguiculatus (Mongolian jird) (Gerbillus unguiculatus), UniProt Q5DUB1). Nature of the data set: Effect on GR73632-induced foot-tapping. Format: in vivo. Particulars: 0.3 mg/kg from the jugular vein, GR73632 after four hours, male gerbil. On the procedure:
(1) Effect on Foot-tapping
(§1) A male gerbil (Japan SLC) was anesthetized with isoflurane, and 0.3 mg/kg of a test compound was administered from the jugular vein. After four hours, GR73632 (5 pmol/5 μl), which is an NK1 receptor agonist, was administered into the cerebral ventricle at the part 1 mm lateral to and 4.5 mm below the bregma in the head, under anesthesia with isoflurane. After the administration, the gerbil was moved to an observation cage, and the foot-tapping period during five minutes after the recovery of the righting reflex was measured. The foot-tapping inhibition rate (%) of each test compound was calculated by the following equation. Foot-tapping inhibition rate (%)={1−(Foot-tapping period when test compound was administered)/(Foot-tapping period when solvent was administered)}×100 (2) Measurement of Drug Concentrations
(§2) In the table, Ex. No. means the Example number. Inhibition (%) is the foot-tapping inhibition rate, and Conc. (nM) is the drug concentration in the brain.

A short description of data set [4]: Measurement of drug concentrations in the brain after foot-tapping test. The format is in vivo. Particulars: male; 0.3 mg/kg iv, after foot-tapping was finished, gerbil brain; read-out: Conc. (drug concentration in the brain). The method, then:
as §1
After foot-tapping was finished, laparotomy was performed immediately under anesthesia with ether, and a blood sample was taken from the abdominal vena cava. At the same time, the brain was extracted. Through a quantitative analysis using liquid chromatography-mass spectrometry (LC/MS), the concentrations of the test compound in the plasma and the brain were measured.
as §2

In data set [5] the target is T2, CYP3A4 (Homo sapiens (Human), UniProt P08684).
Procedure: Enzyme reaction was performed by incubating in a potassium phosphate buffer solution (pH 7.4) containing 1 nM to 20 μM test compound, 3.2 mM magnesium chloride, 0.2 pmol human CYP3A4 (BD Biosciences), 0.5 mM reduced nicotinamide adenine dinucleotide phosphate (NADPH) and 3 μM Luciferin-IPA (Promega) at 37° C. for 10 minutes. The volume of the reaction solution was 50 μL/well. The 30-minute pre-incubation group was incubated at 37° C. for 30 minutes before adding the substrate, the Luciferin-IPA solution (12.5 μL/well). At the end of the enzyme reaction, 50 μL/well of a Luciferin detection reagent (Promega) was added to the wells, and the plate was left at room temperature for 20 minutes. Then, the emission intensities were measured with Infinite M1000 (TECAN). The enzyme activities (%) relative to the value of the group to which the test compound was not added were calculated.
Data set [6] deals with T2, CYP3A4. Particulars: background literature; cited from earlier work.

T2 sequence (P08684 whole entry): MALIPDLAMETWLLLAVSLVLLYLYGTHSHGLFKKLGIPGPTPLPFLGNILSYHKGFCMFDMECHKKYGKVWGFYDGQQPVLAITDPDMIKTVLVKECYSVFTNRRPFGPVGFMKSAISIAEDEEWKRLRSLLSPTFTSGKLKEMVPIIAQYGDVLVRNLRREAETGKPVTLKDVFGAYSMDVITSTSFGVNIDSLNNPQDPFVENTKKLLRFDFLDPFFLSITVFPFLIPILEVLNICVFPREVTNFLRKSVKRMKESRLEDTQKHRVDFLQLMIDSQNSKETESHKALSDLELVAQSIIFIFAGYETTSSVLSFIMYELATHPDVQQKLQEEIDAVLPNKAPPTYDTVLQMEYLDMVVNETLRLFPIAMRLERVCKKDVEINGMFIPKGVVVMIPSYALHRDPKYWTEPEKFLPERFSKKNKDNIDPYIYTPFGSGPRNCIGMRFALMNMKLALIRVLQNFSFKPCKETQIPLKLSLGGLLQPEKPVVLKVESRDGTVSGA
T1 sequence (P25103 whole entry): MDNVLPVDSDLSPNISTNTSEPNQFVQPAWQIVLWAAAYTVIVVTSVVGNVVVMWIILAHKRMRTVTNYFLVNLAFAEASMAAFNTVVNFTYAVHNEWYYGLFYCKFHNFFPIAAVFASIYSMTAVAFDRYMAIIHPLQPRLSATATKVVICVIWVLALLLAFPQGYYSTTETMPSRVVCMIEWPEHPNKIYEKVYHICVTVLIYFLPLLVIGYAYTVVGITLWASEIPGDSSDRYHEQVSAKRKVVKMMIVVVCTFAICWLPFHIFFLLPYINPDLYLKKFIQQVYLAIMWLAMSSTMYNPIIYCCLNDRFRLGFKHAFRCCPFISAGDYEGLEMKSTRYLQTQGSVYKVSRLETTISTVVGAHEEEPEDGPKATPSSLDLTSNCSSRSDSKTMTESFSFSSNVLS
Chain of NK1 receptor (Q5DUB1 whole entry): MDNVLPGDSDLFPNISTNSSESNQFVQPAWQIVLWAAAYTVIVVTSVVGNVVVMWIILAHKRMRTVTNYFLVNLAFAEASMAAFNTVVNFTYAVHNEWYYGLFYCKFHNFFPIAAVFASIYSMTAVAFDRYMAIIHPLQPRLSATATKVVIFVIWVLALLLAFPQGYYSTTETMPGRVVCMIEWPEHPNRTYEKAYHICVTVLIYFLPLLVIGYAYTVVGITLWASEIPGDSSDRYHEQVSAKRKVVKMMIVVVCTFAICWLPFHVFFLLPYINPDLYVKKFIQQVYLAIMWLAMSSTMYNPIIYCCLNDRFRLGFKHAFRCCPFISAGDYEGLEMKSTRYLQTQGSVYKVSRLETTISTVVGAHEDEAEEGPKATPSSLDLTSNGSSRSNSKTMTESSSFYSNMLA

Consider `Cc1cc(F)ccc1-c1cc(N2CCC(C(C)C(=O)O)CC2)nc(C#N)c1N(C)C(=O)C(C)(C)c1cc(C(F)(F)F)cc(C(F)(F)F)c1` (stereo not drawn) [Example 8], for which the IC50 is 2.25 nM in data set [1] and 1400 nM in data set [5] (human, 10 min, pH 7.4). Moreover, the remaining activity at 0.1 µM in data set [2] was 69%. In addition, in data set [3], the “Inhibition (foot-tapping inhibition rate)” value came out at 100%. For the same compound, in data set [4], the concentration at 4 h was found to be 213 nM.
On to `Cc1cc(F)ccc1-c1cc(N2CCC([C@@H](C)C(=O)O)CC2)ncc1N(C)C(=O)C(C)(C)c1cc(C(F)(F)F)cc(C(F)(F)F)c1` [Example 12, (R)-2-[5′-{[2-(3,5-Bistrifluoromethylphenyl)-2-methylpropionyl]methylaminol}-4′-(4-fluoro-2-methylphenyl)-3,4,5,6-tetrahydro-2H-[1,2]bipyridinyl-4-yl]propionic acid], for which the IC50 is 7.44 nM in data set [1] and 4600 nM in data set [5].
Turning to `CC(=O)N1CCN([C@H]2CCN(C(=O)N(C)[C@H](C)c3cc(C(F)(F)F)cc(C(F)(F)F)c3)[C@@H](c3ccc(F)cc3C)C2)CC1` [casopitant], the “inhibitory effect on CYP3A4 (reported)” value in data set [6] was “inhibitory effect on CYP3A4”.
On to `Cc1ccccc1-c1cc(N2CCN(C)CC2)ncc1N(C)C(=O)C(C)(C)c1cc(C(F)(F)F)cc(C(F)(F)F)c1` [netupitant], for which the “inhibitory effect on CYP3A4 (reported)” value in data set [6] is on record as “inhibitory effect on CYP3A4”.
